Tested on: TNF superfamily subtype 3 mRNA
Experiment: effect of dietary components on HAG-induced TNF superfamily subtype 3 mRNA in whole blood
Format: cell-based, human
Conditions: 100 nM, pre-incubation 37° C. 1 hour, then HAG; one individual, FIG. 10
Method: Triplicate aliquots of 50 μL each of heparinized whole blood was incubated with 200 μg/mL HAG at 37° C. for 2 hours. Then blood samples were applied to 96-well filterplates to trap leukocytes, and cell lysates were transferred to 96-well oligo(dT)-immobilized microplates for isolation of poly(A)^+ mRNA as described above. cDNA was synthesized on the microplates and was used for real-time polymerase chain reaction (PCR) in 384-well plates by monitoring SYBR Green fluorescence (see Morrison et al., Quantification of low-copy transcripts by continuous SYBR Green I monitoring during amplification. Biotechniques 1998; 24:954-8, 960, 96). […] The Ct was determined by analytical software (SDS, ABI). The PCR conditions were carefully optimized, so that a single appropriate peak was detected on melting curve analysis without any primer dimers. To validate the assay conditions, synthetic RNA34 was spiked into the lysis buffer, and this RNA34 was also quantitated by real time PCR. […] The Ct was set equal to the PCR cycle where certain amounts of PCR products were generated, and delta Ct (ΔCt) was also calculated by subtracting the Ct values of the un-stimulated samples from those of the stimulated samples. Since Ct is a log scale, 1 ΔCt means double or one half in quantity, and a negative ΔCt indicates an increase in expression. […]

With `O=c1c(O)c(-c2ccc(O)c(O)c2)oc2cc(O)cc(O)c12` [quercetin] the “HAG-induced TNF superfamily subtype 3 expression in blood pre-exposed to dietary component” value was “significant (p=0.03) induction”.

Source: patent publication US7741023B2, “Method for predicting immune response to neoplastic disease based on mRNA expression profile in neoplastic cells and stimulated leukocytes” (Hitachi Chemical Co., Ltd., priority 2005, dated 2010)
